Like-named read-outs stand apart in the source and are kept apart here. Marks after values point to notes of the source that are not given here.
Assays:
Rhodotorula rubra = assay: NCCLS broth macro-dilution MIC/MFC (RPMI); type: cell-based; conditions: Table 10, 4 day, 30° C.
Acinetobacter B-681 = assay: Agar diffusion assay
[1] = test system: Conditional pathogenic enterobacteria gram-negative aerobic bacilli; type: cell-based; further: key: + sensitive strains; + moderately sensitive strains; − stable strains
[2] = test system: Escherichia coli ATCC 25922; assay: NCCLS broth microdilution MIC/MBC; type: cell-based; conditions: for MIC: Escherichia coli, ATCC25922, read-out: MIC
Salmonella typhimurium = assay: NCCLS broth microdilution MIC/MBC; type: cell-based
[3] = test system: Pseudomonas aeruginosa ATCC 27853; assay: NCCLS broth microdilution MIC/MBC; type: cell-based; conditions: for MIC: Pseudomonas aeruginosa, ATCC27853, read-out: MIC
Rhizopus stolonifer = assay: microbe, parasite or virus in culture; type: cell-based; conditions: for MIC: Rhizopus stolonifer
[4] = test system: Campylobacter jejuni RMIT FF3; assay: NCCLS broth microdilution MIC/MBC; type: cell-based; conditions: Table 9, 48 h
[5] = test system: E. faecalis-clinical isolate 1; assay: microbe, parasite or virus in culture; type: cell-based
[6] = test system: S. aureus-clinical isolate 2; assay: microbe, parasite or virus in culture; type: cell-based
Description: (§1) NCCLS-USA Standard Method—Broth microdilution (or macrodilution) (Mueller-Hinton).
(§2) Inoculum 1-4×10^4 cfu (or −4×10^5 cfu). Ciprofloxacin test control. Chlorhexidine values added for disinfectant and antiseptic activity comparison.

[7] = test system: S. aureus-clinical isolate 1; assay: microbe, parasite or virus in culture; type: cell-based
Description: as §1, §2

Alkaligenes sp. B-689 = assay: Sensitivity of strains: suppression of growth; type: cell-based; conditions: Compound (1) 1.0%; antibiotics disc method
C. hyointestinalis 54/4 = assay: MIC/MMC against clinical strains of Campylobacter spp.; conditions: Table 18; clinical strain isolated from humans
Candida albicans = assay: M38-P microdilution MIC/MFC; type: cell-based; conditions: Table 16, 24 h, 35° C.
[8] = test system: Campylobacter jejuni 54/1-2; assay: MIC/MMC against clinical strains of Campylobacter spp.; conditions: Table 18; clinical strain isolated from humans
Candida albicans B-45 = assay: Sensitivity of pathogenic fungi; type: cell-based; conditions: Inoculation 5 × 10^4
[9] = test system: Salmonella typhimurium museum strain 727; assay: Impregnated agar serial double dilutions; conditions: meat peptone agar
[10] = test system: Staphylococcus aureus B-685; assay: Sensitivity of strains: suppression of growth; type: cell-based; conditions: Compound (1) 1.0%; antibiotics disc method
[11] = test system: Klebsiella pneumoniae M-A21; assay: Sensitivity of strains: suppression of growth; type: cell-based; conditions: Compound (1) 1.0%; antibiotics disc method
Enterococcus faecalis = assay: Agar plug diffusion, zone of retardation; conditions: plug impregnated at 0.5%
[12] = test system: Staphylococcus aureus M-209; assay: Sensitivity of strains: suppression of growth; type: cell-based; conditions: Compound (1) 1.0%; antibiotics disc method
[13] = test system: β-hemolytic streptococcus B-624; assay: Sensitivity of strains: suppression of growth; type: cell-based; conditions: Compound (1) 1.0%; antibiotics disc method
M. catarrhalis = assay: Antibacterial activity in the presence of blood, macrodilution; type: cell-based; conditions: for MIC: Moraxella catarrhalis
[14] = test system: Staphylococci epidermidis B-513; assay: Agar diffusion assay
C. jejuni 541-3 = assay: MIC/MMC against clinical strains of Campylobacter spp.; conditions: Table 18; clinical strain isolated from humans
Rhizopus stoloniefer = assay: M38-P microdilution MIC/MFC; type: cell-based; conditions: Table 16, 48 h, 35° C.
Shigella sonnei B-720 = assay: Sensitivity of strains: suppression of growth; type: cell-based; conditions: Compound (1) 1.0%; antibiotics disc method
[15] = test system: Streptococcus pneumonia ATCC49619; assay: NCCLS broth microdilution MIC/MBC; type: cell-based; conditions: Table 9, 35° C., 24 hours
B. subtilis = assay: Antibacterial activity in the presence of blood, macrodilution; type: cell-based; conditions: for MIC: Bacillus subtilis
Fusarium graminearum = assay: microbe, parasite or virus in culture; type: cell-based

C/C(=C\c1ccc2c(c1)OCO2)[N+](=O)[O-] [Compound (1)]
6: Size of zone of retardation of the growth (Enterococcus faecalis)
35# mm: Diameter of zone of Growth inhibition (Acinetobacter B-681; Concentration in disc 1.0%)
4 µg/mL: MIC (Rhizopus stolonifer; Table 20, […], parent strain, read-out: MIC Initial) | MIC (Rhizopus stolonifer; before exposure, MHB, read-out: Standard MIC Initial) | MIC (M. catarrhalis; 5% blood) | MIC (Rhizopus stoloniefer; Rhizopus, read-out: MIC) | MIC (Fusarium graminearum; Fusarium graminearum, 168 h)
4-32 to Wk 5 μg/mL: 7-Day MIC Range (Rhizopus stolonifer; to Wk 5)
approximately neutral: pH (in 50% v./v. ethanol)
2 µg/mL: MIC ([4]; Campylobacter jejuni, RMITFF3) | MMC [4]
32# mm: Diameter of zone of Growth inhibition (Acinetobacter B-681; Concentration in disc 0.1%) | Diameter of zone of Growth inhibition ([14]; Concentration in disc 0.1%)
5 × 10^4: Number of microbes: Retardation (Candida albicans B-45; 2.0%)
2: MMC (C. hyointestinalis 54/4) | MMC [8] | MMC (C. jejuni 541-3)
256 µg/mL: MIC (Salmonella typhimurium; Salmonella enterica, TYPHIMURIUM, 24 h)
0.5%: Minimal % Compound (1) giving complete inhibition of test culture [9]
+: Suppression of Growth (+/−) [1] | Suppression of Growth (+/−) (Alkaligenes sp. B-689) | Suppression of Growth (+/−) [10] | Suppression of Growth (+/−) [11] | Suppression of Growth (+/−) [12] | Suppression of Growth (+/−) [13] | Suppression of Growth (+/−) (Shigella sonnei B-720)
32 µg/mL: MMC [5] | MMC ([5]; 35° C., 24 hours) | MIC ([5]; Enterococcus faecalis, 35° C., 24 hours) | MIC (M. catarrhalis; — (no plasma or blood)) | MMC [15]
5 × 10^6: Number of microbes: Retardation (Candida albicans B-45; 0.1%) | Number of microbes: Retardation (Candida albicans B-45; 0.5%)
> 512 µg/mL: MIC ([2]; Table 9, 35° C., 24 hours) | MIC ([2]; Table 17, 2 or 3 replicates) | MIC ([3]; Table 9, 35° C., 24 hours) | MIC ([3]; Table 17, 2 or 3 replicates)
16 µg/mL: MIC (Rhizopus stolonifer; Table 20, […], after 12 weeks continuous exposure, read-out: MIC Final) | MIC ([6]; Staphylococcus aureus, 24 h) | MMC ([6]; Table 9, 35° C., 24 hours) | MMC ([6]; Table 17, 2 or 3 replicates) | MIC ([7]; Staphylococcus aureus, 24 h) | MMC ([7]; Table 9, 35° C., 24 hours) | MMC ([7]; Table 17, 2 or 3 replicates) | MMC (Rhizopus stoloniefer) | MIC ([15]; Streptococcus pneumoniae, ATCC49619) | MMC (B. subtilis; 5% blood) | MIC (B. subtilis; — (no plasma or blood))
>512 µg/mL: MMC ([2]; Table 9, 35° C., 24 hours) | MMC ([2]; Table 17, 2 or 3 replicates) | MMC (Salmonella typhimurium; Table 9, 35° C., 24 hours) | MMC ([3]; Table 9, 35° C., 24 hours) | MMC ([3]; Table 17, 2 or 3 replicates)
34# mm: Diameter of zone of Growth inhibition ([14]; Concentration in disc 1.0%)
38# mm: Diameter of zone of Growth inhibition (Acinetobacter B-681; Concentration in disc 2.0%) | Diameter of zone of Growth inhibition ([14]; Concentration in disc 2.0%)
0: Number of microbes: Growth (Candida albicans B-45; 0.1%) | Number of microbes: Growth (Candida albicans B-45; 0.5%) | Number of microbes: Growth (Candida albicans B-45; 2.0%)
8 µg/mL: MIC (Rhodotorula rubra; Rhodotorula, 96 h) | MMC (Rhodotorula rubra) | MIC (Candida albicans; Candida albicans, read-out: MIC) | MMC (Candida albicans) | MMC (M. catarrhalis; 5% blood) | MMC (M. catarrhalis; 10% plasma) | MIC (M. catarrhalis; 10% plasma) | MMC (B. subtilis; 10% plasma) | MIC (B. subtilis; 5% blood) | MIC (B. subtilis; 10% plasma) | MMC (Fusarium graminearum; Table 10, 7 day, 30° C.)

— patent publication US20150258059A1, “ANTIMICROBIAL AND RADIOPROTECTIVE COMPOUNDS” (BioDiem, Ltd, priority 2001, published 2015)
